± gives the standard deviation of the averaged measurements.

This is an account of results in the supplement of paper PMC5579334.

The test system of experiment [1] is HS-PSS. The experiment can be described thus: drug sensitivity score (DSS, CellTiter-Glo viability, 72 h) (DSS (dimensionless)); higher = more sensitive; extreme values may be limits of the assay. The essentials:
(§1)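 MPNST cell lines and primary human Schwann cells were seeded at 750–1000 cells per well into 384-well plates preprinted with each compound at five concentrations in 10-fold steps, then incubated 72 h at 37 °C, 5% CO2. CellTiter-Glo ATP luminescence gave viability, scaled between vehicle and positive-control wells, with duplicates averaged where present. Curves were fitted with a four-parameter logistic model. Percent inhibition refers to the top concentration, while drug sensitivity score and relative IC50, censored at the top concentration, come from these fits.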

Experiment [2] concerns HS-Sch-2. The experiment is described as above. In outline:
as §1

The test system of experiment [3] is HSC1 (primary human Schwann cells). The description is as above. In outline: as §1
In experiment [4] the test system is HSC2 (primary human Schwann cells). Described as above. In outline:
as §1

For experiment [5], the system named is S1507-2. The description is as above. The essentials:
as §1

For experiment [6], the system named is S462. Described as above. In outline: as §1
Experiment [7] has as its system ST8814. The description is as above. The essentials:
as §1

The subject of experiment [8] is STS26T. Described as above. In outline: as §1
Experiment [9] has as its system YST-1. Described as above. In outline: as §1
Experiment [10] has as its system HS-PSS. The experiment can be described thus: drug sensitivity score (DSS, CellTox-Green cytotoxicity, 72 h) (DSS (dimensionless)); higher = more cytotoxic; extreme values may be limits of the assay. The essentials: (§2)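 For 72 h at 37 °C, MPNST cell lines and primary human Schwann cells were exposed in 384-well plates to five 10-fold compound dilutions. CellTox-Green, added before seeding at a final 1:1000 dilution, gave fluorescence from DNA released by disrupted cells. Signals were scaled to vehicle and positive-control wells, cultures failing plate quality control were left out, and four-parameter logistic fits were applied. Relative IC50 and drug sensitivity score were derived from the fits, with IC50 censored at the top concentration.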

Experiment [11] concerns HSC1 (primary human Schwann cells). The description is as above. The essentials:
as §2

Experiment [12] deals with HSC2 (primary human Schwann cells). The experiment is described as above. In outline: as §2
Experiment [13] has as its system S1507-2. The description is as above. The essentials:
as §2

Experiment [14] relates to ST8814. The experiment is described as above. The essentials:
as §2

Experiment [15] has as its system STS26T. The experiment is described as above. In outline: as §2
Experiment [16] relates to HS-PSS. The experiment can be described thus: % inhibition of CellTiter-Glo viability at highest tested concentration (72 h), relative to DMSO and benzethonium chloride controls; higher = more inhibition. In outline:
as §1

Experiment [17] relates to HS-Sch-2. The description is as above. In outline:
as §1

Experiment [18] deals with HSC1 (primary human Schwann cells). The description is as above. The essentials:
as §1

Experiment [19] concerns HSC2 (primary human Schwann cells). Described as above. The essentials:
as §1

In experiment [20] the test system is S1507-2. The experiment is described as above. The essentials:
as §1

The subject of experiment [21] is S462. The experiment is described as above. The essentials:
as §1

The test system of experiment [22] is ST8814. The experiment is described as above. In outline: as §1
Experiment [23] has as its system STS26T. Described as above. The essentials:
as §1

In experiment [24] the test system is YST-1. The experiment is described as above. In outline:
as §1

In general, % inhibition refers to the drop in the measured response relative to a control, in per cent. In the case of `C=CC(=O)N1CCC[C@@H](n2nc(-c3ccc(Oc4ccccc4)cc3)c3c(N)ncnc32)C1` [Ibrutinib] (max concentration tested 1000 nM), the drug sensitivity score in experiment [1] stood at 1.17; in experiment [2] it was 0; in experiment [3] it was 0; in experiment [4] it was 0; in experiment [5], 0; in experiment [6], 0. The drug sensitivity score in experiment [7], in experiment [8], in [9], in experiment [10], in [11] and in experiment [12] was 0 throughout. Moreover, the drug sensitivity score in experiment [13], in experiment [14] and in [15] was 0 throughout. Moreover, the “% inhibition” value was 7.7% in experiment [16]; 0.01% in [17]; -4.13% in experiment [18]; -1.15% in experiment [19]; -8.72 ± 4.8% in experiment [20]; -0.0582 ± 2.1% in experiment [21]. Further, the “% inhibition” value in experiment [22] is 2.81%; in experiment [23], 2.46%; in [24] it was -1.93%.
On to `CC(=O)[C@]1(O)Cc2c(O)c3c(c(O)c2[C@@H](O[C@H]2C[C@H](N)[C@H](O)[C@H](C)O2)C1)C(=O)c1ccccc1C3=O` [Idarubicin] (max concentration tested 1000 nM), for which the drug sensitivity score in experiment [1] amounted to 10.1; in [2], 15.7; in experiment [3], 18.1; in [4], 17.6; in experiment [5], 17.1 ± 2.4; in [6], 23.5 ± 0.84. The drug sensitivity score in experiment [7] came to 16.2; in [8], 20.5; in experiment [9], 24.2; in [10] it was 5.11; in [11], 8.63; in experiment [12], 7.65. In addition, the results for the drug sensitivity score in [13], in [14] and in experiment [15] were 10.6 ± 0.28, 12.2 and 15.8, respectively. Besides, the “% inhibition” value stood at 92.3% in experiment [16]; 102% in experiment [17]; 94.9% in experiment [18]; 95.5% in experiment [19]; 95.7 ± 1.7% in experiment [20]; 99.5 ± 0.8% in [21]. Further, the “% inhibition” value was found to be 88% in experiment [22], 97.8% in [23] and 101% in [24].
As for `CC[C@H](Nc1ncnc2[nH]cnc12)c1nc2cccc(F)c2c(=O)n1-c1ccccc1` [Idelalisib] (max concentration tested 10000 nM), the drug sensitivity score came out at 0 in experiment [1]; 0 in experiment [2]; 0 in experiment [3]; 0 in [4]; 7.05 ± 0.49 in experiment [5]; 0 in experiment [6]. Also, the drug sensitivity score is 0.546 in experiment [7]; 4.47 in [8]; 5.3 in experiment [9]; 0 in experiment [10]; 0 in experiment [11]; 2.82 in experiment [12]. Further, the values for the drug sensitivity score in [13], in experiment [14] and in experiment [15] were 0, 0 and 2.81, respectively. Also, the “% inhibition” value came out at 2.74% in experiment [16]; 3.62% in experiment [17]; 14.6% in experiment [18]; 9.86% in experiment [19]; 35.2 ± 8.5% in experiment [20]; 19.1 ± 8.8% in experiment [21]. The “% inhibition” value in experiment [22] worked out at 21.2%; in [23], 49.3%; in [24], 46.5%.
With `O=P1(NCCCl)OCCCN1CCCl` (centres undefined) [Ifosfamide] (max concentration tested 10000 nM), the drug sensitivity score in [1] was 0; in [2], 0; in experiment [3], 0; in [4] it was 0; in [5] it was 0.228 ± 0.32; in experiment [6], 0. The drug sensitivity score in [7] was 0; in experiment [8] it was 0; in [9], 0.08; in experiment [10], 0; in experiment [11], 0; in experiment [12], 0. For the same compound, the drug sensitivity score in experiment [13], in experiment [14] and in experiment [15] was 0 throughout. Further, the “% inhibition” value in [16] was -0.44%; in [17], -4.64%; in experiment [18] it was 0.661%; in [19] it was -1.49%; in experiment [20], 4.66 ± 16%; in experiment [21], 2.94 ± 0.79%. For the same compound, the “% inhibition” value in [22] was 1.12%; in experiment [23], -1.13%; in [24], 11.6%.
Regarding `Cc1ccc(NC(=O)c2ccc(CN3CCN(C)CC3)cc2)cc1Nc1nccc(-c2cccnc2)n1` [Imatinib] (max concentration tested 10000 nM), the drug sensitivity score is 4.08 in experiment [1]; 4.96 in experiment [2]; 0 in experiment [3]; 0 in experiment [4]; 3.9 ± 0.28 in experiment [5]; 0.251 ± 0.2 in experiment [6]. In addition, the drug sensitivity score in [7] was determined as 1.36; in experiment [8], 0.675; in experiment [9], 4.29; in experiment [10], 0.1; in experiment [11], 0; in [12], 0. Also, the drug sensitivity score in experiment [13] was 0.237 ± 0.34; in experiment [14], 1.72; in experiment [15], 0. Also, the “% inhibition” value came to 58.8% in [16]; 89.5% in experiment [17]; 9.96% in experiment [18]; 8.82% in experiment [19]; 49.5 ± 1.2% in experiment [20]; 16.7 ± 2.7% in [21]. Also, the “% inhibition” value in experiment [22] came to 33.4%; in [23], 23.5%; in [24], 53.8%.
For the compound `CC(C)Cn1cnc2c(N)nc3ccccc3c21` [Imiquimod] (max concentration tested 2500 nM), the drug sensitivity score came to 0.9 in experiment [1]; 0.45 in experiment [2]; 0 in experiment [3]; 0 in experiment [4]; 0 in experiment [5]; 0 in experiment [6]. Further, the drug sensitivity score in experiment [7], in [8], in experiment [9], in [10], in experiment [11] and in [12] was 0 each time. Moreover, the drug sensitivity score in experiment [13], in experiment [14] and in experiment [15] was 0 in each case. For the same compound, the “% inhibition” value in experiment [16] was 14.8%; in [17], 16.9%; in [18] it was -1.61%; in [19] it was 6.67%; in experiment [20] it was -4.77 ± 3.7%; in experiment [21] it was 1.41 ± 6.7%. In addition, the “% inhibition” value is -6.88% in experiment [22], 3.07% in experiment [23] and 4.76% in experiment [24].
